# Results: patent US9084770B2, “Modulation of insulin like growth factor I receptor expression in cancer” (Antisense Therapeutics, Ltd., priority 2008, dated 2015)
# Marks after values point to notes of the source that are not given here.
# Key:
# [1] = test system: insulin receptor-B (IR-B); experiment: Insulin receptor-B protein in transfected LNCaP and PC3 cells, immunoblot; type: cell-based, human; conditions: highest ATL1101 concentration tested for each cell line (LNCaP, PC3)
# Method: FIGS. 1B(i)-1B(ii) show sequence-specific and dose-dependent inhibition of IGF-IR protein by IGF-IR antisense oligonucleotide in LNCaP (FIG. 1B (i)) and PC-3 (FIG. […]) cells. […] Two days after the second transfection, whole cell detergent lysates were prepared and 30 μg of total protein was subjected to SDS-PAGE and immunoblotted for IGF-IRB subunit, IR-BB subunit and vinculin expression. Oligofectamine, oligofectamine treated cells only. In LNCaP cells, IGF-IR expression was >80% suppressed by 10 nM ATL1101 and was undetectable at 100 nM ATL1101. In PC3 cells, IGF-IR expression was suppressed ˜50% at 10 nM ATL1101, >80% at 50 nM ATL1101 and >90% at 200 nM. […] Vinculin expression is shown as a loading control.
# [2] = test system: insulin receptor IR-A, IR-B, IR-β protein; experiment: Insulin receptor transcripts and protein in PC3 Ptx-R cells; type: cell-based, human
# Excerpt: (§1) The PC3 Ptx-R cells retain sensitivity to ATL1101-induced IGF-IR down regulation at the mRNA and protein level as shown in FIGS. 11A-C. […] ATL1101 and the control oligodeoxynucleotide ISIS 306064 had no effect on either of the alternative spliced isoform transcripts of the insulin receptor, IR-A, IR-B or IR-β protein or vinculin protein levels.
# IGF-IR mRNA = IGF-IR mRNA in PC3 Ptx-R cells; type: cell-based, human; conditions: 10 to 200 nM, compared to oligofectamine transfection reagent
# Excerpt: as §1
# PC3 cells [3] = experiment: PC3 viable cells and apoptosis after transfection plus Paclitaxel
# Method: PC3 cells cultured in vitro were transfected at concentrations of IGF-IR antisense oligonucleotide (ATL1101) or control oligodeoxynucleotide (ISIS 306064) ranging from 12.5 nM to 50 nM or oligofectamine control once per day on two sequential days. After the 2nd transfection, the PC3 cells were treated with concentrations of between 0.1 to 50 nM Paclitaxel. The number of viable cells remaining were determined 72 hours after Paclitaxel treatment.
# LNCaP cells = experiment: LNCaP cell cycle and apoptosis, flow cytometry with propidium iodide; type: cell-based, human; conditions: 100 nM
# Method: (§2) Established methods were used to test the activity of IGF-IR antisense oligonucleotide on LNCaP and PC-3 cell growth (crystal violet assay) and apoptosis (FACS). Dose- and sequence-specific suppression of IGF-IR mRNA and protein expression in ATL1101-treated LNCaP and PC3 PC cell lines in vitro were observed by QT-PCR and western blotting. Effects of the IGF-IR antisense oligonucleotide on various putative targets, including IGF-IR and downstream targets were evaluated using western blotting.
# The Effect of IGF-IR silencing with IGF-IR antisense oligonucleotide (ATL1101) on LNCaP and PC3 cell apoptosis and cell cycle is shown in FIGS. 4A(i)-(ii), 4B, 4C(i)-(ii), and Table 2. Cells were transfected with indicated concentrations of ATL1101, control oligodeoxynucleotide or oligofectamine as in FIGS. 1A(i)-1B(ii). Two days after treatment, cell cycle analysis was determined by flow cytometry using propidium iodide staining. […] In FIGS. 4C(i)-(ii), LNCaP (FIG. 4C (i)) or PC-3 (FIG. 4C (ii)) cells were transfected with indicated concentration of ATL1101 or control oligodeoxynucleotide (ISIS 306064) for two days. Cells were then cultured in FBS media for one day and in serum-free media for one day. Whole cell lysates (30 μg) were subjected to SDS-PAGE and immunoblotted to assess Cyclin D1, Cyclin E, p-RB, total Rb, and p27 protein levels. Oligo, oligofectamine treated cells only.
# PC3 tumors = experiment: PC-3 xenograft, tumor volume (monotherapy); type: in vivo, mice; conditions: 15 mg/kg i.p.
# Method: One million PC-3 or LNCaP cells were injected subcutaneously in athymic mice. For LNCaP xenografts, when PSA values exceeded 50 ng/ml, mice were castrated and randomly selected for treatment with ATL1101 or control oligodeoxynucleotide (15 mg/kg) injected i.p. once daily for 7 days and 3 times per week thereafter. Blood samples were obtained from the tail vein of the mice once weekly to measure serum PSA by ELISA. For PC-3 xenografts, when tumors reached 100 mm^3, mice were randomly selected and treated with the same protocol as LNCaP.
# The effects of IGF-IR antisense oligonucleotide treatment in LNCaP and PC-3 tumors in vivo are show in FIGS. 5A-5C. LNCaP cells were inoculated s.c. and when PSA values exceeded 50 ng/ml, mice were castrated and randomly selected for treatment with ATL1101 or control oligodeoxynucleotide (15 mg/kg) injected i.p. once daily for 7 days and 3 times per week thereafter. Blood samples were obtained from the tail vein of the mice once weekly to measure serum PSA by ELISA. PC-3 cells were inoculated s.c. and when tumors reached 100 mm^3, mice were randomly selected for treatment with the same protocol as LNCaP. Each point represents the mean tumor volume in each group containing 10 mice; bars, SE. * differs from control oligodeoxynucleotide treatment group (p<0.05) by Student's t test.
# PC3 cells [4] = experiment: PC3 cell viability, crystal violet assay; type: cell-based, human; conditions: FBS media, achieved by 100 nM, three days after treatment
# Method: as §2
# Cells were transfected with indicated concentrations of ATL1101, control oligodeoxynucleotides or oligofectamine as in FIGS. 1A(i)-1A(ii). Three days after treatment, cell viability was determined by crystal violet assay. Viable cell density was normalized to that of cells treated with oligofectamine. Points, means of triplicate analysis; bars, SE. *, p<0.05 differs from control oligodeoxynucleotide treatment group. **, p<0.01 differs from control oligodeoxynucleotide treatment group by Student's t test.
# Ki67 = Ki67 immunohistochemistry in psoriatic skin biopsies after topical treatment; type: in vivo; conditions: topically applied
# Method: The present inventors assessed proliferation by Ki67 labeling in paraffin wax-embedded, formalin-fixed, 3 mm diameter, full-thickness psoriatic skin biopsies at the conclusion of the treatment phase of topically applied ATL1101. The tissue was analyzed to assess the effect of the antisense treatments on Ki67 expression using immunohistochemical analysis.
substance,measurement,setting,value
"cgaaggaaacaatactccga (CGAAGGAAACAATACTCCGA; 2'-MOE modified, pattern not given here) [ISIS 175317, 2′-MOE-modified IGF-IR antisense oligonucleotide, also known as ATL1101]",suppression of IR-B expression,[1],< 10%
same,"insulin receptor IR-A, IR-B transcripts or IR-β protein levels",[2],no effect
same,IGF-IR mRNA levels,IGF-IR mRNA,specifically reduced
same,fold higher Paclitaxel concentration (10 nM vs 1 nM) needed with 25 nM mismatch control for similar viability,PC3 cells [3]; 25 nM ATL1101 with 1 nM Paclitaxel,10 fold
same,amount of Paclitaxel required to induce tumor cell apoptosis,PC3 cells [3]; in combination with ATL1101,significantly reduced
same,"% of total cells, G0/G1",LNCaP cells; CSS condition,13.3%
same,"% of total cells, G2/M",LNCaP cells; CSS condition,1.2%
same,"% of total cells, S",LNCaP cells; CSS condition,1.2%
same,"% of total cells, Sub G0/G1",LNCaP cells; CSS condition,84.3%
same,subG0/G1 + G0/G1:S + G2/M,LNCaP cells; CSS condition,40.7***
same,"% of total cells, G0/G1",LNCaP cells; FBS condition,32.8%
same,"% of total cells, G2/M",LNCaP cells; FBS condition,2.8%
same,"% of total cells, S",LNCaP cells; FBS condition,3.4%
same,subG0/G1 + G0/G1:S + G2/M,LNCaP cells; FBS condition,15.1**
same,"% of total cells, Sub G0/G1","LNCaP cells; FBS condition, two days after treatment",61%
same,tumor volume compared to control oligodeoxynucleotide,PC3 tumors,significantly reduced
same,maximum reduction of cell viability relative to control,PC3 cells [4],~60%
same,Ki67 by length (mm) and area (mm squared) vs. mismatch control,Ki67,Statistically significant reduction
